Measurements from US20240246908A1 (ORION CORPORATION, priority 2021, published 2024).

System: YAP-TEAD
Assay: TEAD inhibition, Hippo Pathway TEAD Reporter MCF-7 luciferase assay
Assay type: cell-based
Conditions: Homo sapiens, MCF7, 24 h, Hippo Pathway TEAD Reporter MCF-7 cells, luciferase activity after 24 h; read-out: IC50 of the test compounds on YAP-TEAD inhibition (Group)
Outline: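 MCF-7 cells carrying a TEAD-responsive firefly luciferase reporter, with nuclear YAP1 driving constitutive expression, were treated the day after plating with compounds (11 concentrations, 4 replicates; 0.1% DMSO control). After 24 h, luciferase was read by ONE-Glo luminescence and IC50 determined.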

SMILES	IC50 [nM]
CN1C(=O)OC[C@H]1C(=O)Nc1cc(Oc2ccc(C(F)(F)F)cn2)ccc1F [Compound 199, (S)—N-(2-Fluoro-5-((5-(trifluoromethyl)pyridin-2-yl)oxy)phenyl)-3-methyl-2-oxooxazolidine-4-carboxamide]	301 to 2000
COc1ccc(Oc2cc(C(F)(F)F)ccn2)cc1NC(=O)C1CNC(=O)N1C (centres unmarked) [Compound 200, N-(2-Methoxy-5-((4-(trifluoromethyl)pyridin-2-yl)oxy)phenyl)-3-methyl-2-oxoimidazolidine-4-carboxamide]	50 to 300
COc1ccc(Oc2cc(C(F)(F)F)ccn2)cc1NC(=O)C1CCC(=O)N1C (centres unmarked) [Compound 201, N-(2-Methoxy-5-((4-(trifluoromethyl)pyridin-2-yl)oxy)phenyl)-1-methyl-5-oxopyrrolidine-2-carboxamide]	301 to 2000
COc1ccc(Oc2ccc(F)cn2)cc1NC(=O)C1CCC(=O)N1C (centres unmarked) [Compound 202, N-(5-((5-Fluoropyridin-2-yl)oxy)-2-methoxyphenyl)-1-methyl-5-oxopyrrolidine-2-carboxamide]	301 to 2000
COc1ccc(Oc2ccc(Cl)cn2)cc1NC(=O)C1CCC(=O)N1C (centres unmarked) [Compound 203, N-(5-((5-Chloropyridin-2-yl)oxy)-2-methoxyphenyl)-1-methyl-5-oxo-pyrrolidine-2-carboxamide]	301 to 2000
COc1ccc(COC2CCC(F)(F)CC2)cc1NC(=O)C1CCC(=O)N1C (centres unmarked) [Compound 205, N-(5-(((4,4-Difluorocyclohexyl)oxy)methyl)-2-methoxyphenyl)-1-methyl-5-oxopyrrolidine-2-carboxamide]	301 to 2000
COc1ccc(OCC2CCC(F)(F)CC2)cc1NC(=O)C1CCC(=O)N1C (centres unmarked) [Compound 206, N-(5-((4,4-Difluorocyclohexyl)methoxy)-2-methoxyphenyl)-1-methyl-5-oxopyrrolidine-2-carboxamide]	< 50
COc1ccc(OC2CCCC(F)(F)CC2)cc1NC(=O)[C@@H]1CCC(=O)N1C (stereo partly drawn) [Compound 207, (2S)—N-(5-((4,4-Difluorocycloheptyl)oxy)-2-methoxyphenyl)-1-methyl-5-oxopyrrolidine-2-carboxamide]	50 to 300
COc1ccc(OC2CCC(C(F)(F)F)CC2)cc1NC(=O)[C@H]1COC(=O)N1C (stereo partly drawn) [Compound 208, (R)—N-(2-Methoxy-5-((4-(trifluoromethyl)cyclohexyl)oxy)phenyl)-3-methyl-2-oxooxazolidine-4-carboxamide]	< 50
COc1ccc(O[C@H]2CC[C@@H](C(F)(F)F)CC2)cc1NC(=O)[C@H]1CCC(=O)N1C [Compound 209, (R)—N-(2-Methoxy-5-(((cis)-4-(trifluoromethyl)cyclohexyl)oxy)phenyl)-1-methyl-5-oxopyrrolidine-2-carboxamide]	< 50
COc1ccc(O[C@H]2CC[C@@H](C(F)(F)F)CC2)cc1NC(=O)[C@@H]1CCC(=O)N1C [Compound 210, (S)—N-(2-Methoxy-5-(((cis)-4-(trifluoromethyl)cyclohexyl)oxy)phenyl)-1-methyl-5-oxopyrrolidine-2-carboxamide]	< 50
COc1ccc(Oc2ccc(C(F)F)cn2)cc1NC(=O)C1CCC(=O)N1C (centres unmarked) [Compound 211, N-(5-((5-(Difluoromethyl)pyridin-2-yl)oxy)-2-methoxyphenyl)-1-methyl-5-oxopyrrolidine-2-carboxamide]	50 to 300
COc1ccc(Oc2ccc(C(F)F)cn2)cc1NC(=O)C1CNC(=O)N1C (centres unmarked) [Compound 212, N-(5-((5-(Difluoromethyl)pyridin-2-yl)oxy)-2-methoxyphenyl)-3-methyl-2-oxoimidazolidine-4-carboxamide]	50 to 300
CN1C(=O)NCC1C(=O)Nc1cc(Oc2ccc(C(F)F)cc2)cc2c1OCC2 (centres unmarked) [Compound 213, N-(5-(4-(Difluoromethyl)phenoxy)-2,3-dihydrobenzofuran-7-yl)-3-methyl-2-oxoimidazolidine-4-carboxamide]	< 50
CN1C(=O)CC[C@H]1C(=O)Nc1cc(Oc2ccc(C(F)F)cc2)cc2c1OCC2 [Compound 214, (S)—N-(5-(4-(Difluoromethyl)phenoxy)-2,3-dihydrobenzofuran-7-yl)-1-methyl-5-oxopyrrolidine-2-carboxamide]	< 50
CN1C(=O)CC[C@@H]1C(=O)Nc1cc(Oc2ccc(C(F)F)cc2)cc2c1OCC2 [Compound 215, (R)—N-(5-(4-(Difluoromethyl)phenoxy)-2,3-dihydrobenzofuran-7-yl)-1-methyl-5-oxopyrrolidine-2-carboxamide]	< 50
CN1C(=O)NC[C@H]1C(=O)Nc1cc(Oc2ccc(C(F)(F)F)cn2)cc2ccoc12 [Compound 216, (S)-3-Methyl-2-oxo-N-(5-((5-(trifluoromethyl)pyridin-2-yl)oxy)benzofuran-7-yl)imidazolidine-4-carboxamide]	< 50
CN1C(=O)NC[C@@H]1C(=O)Nc1cc(Oc2ccc(C(F)(F)F)cn2)cc2ccoc12 [Compound 217, (R)-3-Methyl-2-oxo-N-(5-((5-(trifluoromethyl)pyridin-2-yl)oxy)benzofuran-7-yl)imidazoledine-4-carboxamide]	< 50
CN1C(=O)NC[C@H]1C(=O)Nc1cc(Oc2ccc(C(F)(F)F)cn2)cc2c1ncn2C [Compound 218, (S)-3-Methyl-N-(1-methyl-6-((5-(trifluoromethyl)pyridin-2-yl)oxy)-1H-benzo-[d]imidazol-4-yl)-2-oxoimidazolidine-4-carboxamide]	50 to 300
COc1ccc(Oc2ccc(Cl)c(Cl)c2)cc1NC(=O)C1CCC(=O)N1C (centres unmarked) [Compound 222, N-(5-(3,4-Dichlorophenoxy)-2-methoxyphenyl)-1-methyl-5-oxopyrrolidine-2-carboxamide]	< 50
COc1ccc(Oc2ccc(F)c(Cl)c2)cc1NC(=O)C1CCC(=O)N1C (centres unmarked) [Compound 223, N-(5-(3-Chloro-4-fluorophenoxy)-2-methoxyphenyl)-1-methyl-5-oxo-pyrrolidine-2-carboxamide]	< 50
CN1C(=O)CCC1C(=O)Nc1cc(Oc2ccc(F)c(F)c2)ccc1-c1nnco1 (centres unmarked) [Compound 224, N-(5-(3,4-Difluorophenoxy)-2-(1,3,4-oxadiazol-2-yl)phenyl)-1-methyl-5-oxopyrrolidine-2-carboxamide]	301 to 2000
CN1C(=O)CCC1C(=O)Nc1cc(Oc2ccc(C(F)(F)F)cc2)cc2cn[nH]c12 (centres unmarked) [Compound 225, 1-Methyl-5-oxo-N-(5-(4-(trifluoromethyl)phenoxy)-1H-indazol-7-yl)-pyrrolidine-2-carboxamide]	301 to 2000
COc1ccc(Oc2ccc(C(F)(F)F)cc2)cc1NC(=O)[C@@H]1CN(C)C(=O)N1C [Compound 226, (S)—N-(2-Methoxy-5-(4-(trifluoromethyl)phenoxy)phenyl)-1,3-dimethyl-2-oxoimidazolidine-4-carboxamide]	< 50
COc1ccc(Oc2ccc(C(F)(F)F)cc2)cc1NC(=O)[C@H]1CN(C)C(=O)N1C [Compound 227, (R)—N-(2-Methoxy-5-(4-(trifluoromethyl)phenoxy)phenyl)-1,3-dimethyl-2-oxoimidazolidine-4-carboxamide]	< 50
COc1ccc(Oc2ccc(C(F)(F)F)cc2)cc1NC(=O)C1CN(C)C(=O)C1O (centres unmarked) [Compound 228, 4-Hydroxy-N-(2-methoxy-5-(4-(trifluoromethyl)phenoxy)phenyl)-1-methyl-5-oxopyrrolidine-3-carboxamide]	301 to 2000
